Test results reported in paper PMC5448077, “Development of an orally available inhibitor of CLK1 for skipping a mutated dystrophin exon in Duchenne muscular dystrophy” (Scientific Reports, 2017).

What was measured:
Experiment in all cases: biochemical
DYRK1A = DYRK1A (Homo sapiens, UniProt Q13627)
Protocol: (§1) These assays rely on the phosphorylation of small synthetic peptides developed for each kinase, and detect activity by changes in electrophoretic mobility (MSA assay) or by binding of a fluorescently labelled peptide to a large micro-particle and concomitant polarization increases (IMAP assay). Reaction conditions for each kinase are described in Supplementary Table S5. All kinase assays were carried out at Carna Biosciences (Kobe, Japan). The inhibitory map was constructed using Kinome Render[41]. Inhibitor (4×), substrate/ATP-Metal (4×), and kinase (2×) solutions were prepared with assay buffer (20 mM HEPES, 0.01% Triton X-100, 2 mM DTT, pH 7.5) and mixed in 384-well plates at room temperature for 1 or 5 h depending on the kinase. Reactions were stopped by the addition of termination buffer (QuickScout Screening Assist MSA; Carna Biosciences). The entire reaction mixture was then applied to a LabChip system (Perkin-Elmer, Waltham, MA, USA) and the product and substrate peptide peaks were separated and quantified, and then heights of product (P) and substrate (S) peptide peaks were calculated. The level of kinase activity was evaluated with the following equation: activity = P/(P + S).

PIM1 = PIM1 (Homo sapiens, UniProt P11309)
Protocol: as §1

PKR = biological target: T1, PKR (Homo sapiens, UniProt P19525)
T1 construct: gene EIF2AK2
Protocol: as §1

FLT1 = FLT1 (Homo sapiens, UniProt P17948)
Sequence of FLT1 (P17948 whole entry): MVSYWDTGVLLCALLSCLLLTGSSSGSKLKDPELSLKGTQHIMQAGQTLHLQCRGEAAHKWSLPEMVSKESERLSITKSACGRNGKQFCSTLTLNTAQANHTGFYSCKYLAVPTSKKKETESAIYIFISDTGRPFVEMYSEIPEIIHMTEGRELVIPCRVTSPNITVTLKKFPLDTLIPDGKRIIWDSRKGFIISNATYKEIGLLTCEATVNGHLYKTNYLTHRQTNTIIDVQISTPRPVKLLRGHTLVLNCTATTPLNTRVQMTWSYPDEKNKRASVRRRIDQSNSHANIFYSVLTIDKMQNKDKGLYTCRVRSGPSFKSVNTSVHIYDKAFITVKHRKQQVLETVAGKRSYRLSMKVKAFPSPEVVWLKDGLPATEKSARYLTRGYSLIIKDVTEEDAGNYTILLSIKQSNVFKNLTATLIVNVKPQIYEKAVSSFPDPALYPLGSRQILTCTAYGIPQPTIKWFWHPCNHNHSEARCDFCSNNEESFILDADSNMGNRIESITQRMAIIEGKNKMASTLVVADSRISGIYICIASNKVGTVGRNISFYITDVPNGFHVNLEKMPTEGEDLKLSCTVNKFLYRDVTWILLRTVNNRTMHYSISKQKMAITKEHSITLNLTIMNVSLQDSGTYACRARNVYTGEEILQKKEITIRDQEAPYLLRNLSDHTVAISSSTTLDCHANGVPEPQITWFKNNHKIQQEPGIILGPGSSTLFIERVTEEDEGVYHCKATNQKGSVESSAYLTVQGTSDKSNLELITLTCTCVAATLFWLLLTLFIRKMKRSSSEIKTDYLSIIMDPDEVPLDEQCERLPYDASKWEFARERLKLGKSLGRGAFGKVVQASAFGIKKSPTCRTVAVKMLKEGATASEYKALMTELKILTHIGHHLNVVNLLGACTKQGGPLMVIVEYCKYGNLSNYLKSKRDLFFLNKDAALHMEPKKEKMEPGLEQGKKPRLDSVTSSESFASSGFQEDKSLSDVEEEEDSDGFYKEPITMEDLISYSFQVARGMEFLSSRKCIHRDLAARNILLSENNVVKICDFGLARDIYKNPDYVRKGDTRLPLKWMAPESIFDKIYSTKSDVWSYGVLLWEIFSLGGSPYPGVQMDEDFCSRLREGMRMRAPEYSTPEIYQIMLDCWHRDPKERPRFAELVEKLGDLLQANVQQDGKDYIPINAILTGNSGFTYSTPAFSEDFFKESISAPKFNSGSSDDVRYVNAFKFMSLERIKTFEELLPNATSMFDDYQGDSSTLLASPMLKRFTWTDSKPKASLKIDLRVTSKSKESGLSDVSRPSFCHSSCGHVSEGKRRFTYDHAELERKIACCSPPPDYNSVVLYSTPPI
Protocol: as §1

WNK1 = WNK1 (Homo sapiens, UniProt Q9H4A3)
Protocol: as §1

KIT(V560G) = KIT(V560G) (Homo sapiens, UniProt P10721, V560G)
Protocol: as §1

PDGFRα(T674I) = biological target: T2, PDGFRα(T674I) (Homo sapiens, UniProt P16234, T674I)
T2 construct: gene PDGFRA
Protocol: as §1

PLK3 = PLK3 (Homo sapiens, UniProt Q9H4B4)
Protocol: as §1

KIT(D816Y) = KIT(D816Y) (Homo sapiens, UniProt P10721, D816Y)
Sequence of KIT(D816Y) (P10721 whole entry D816Y): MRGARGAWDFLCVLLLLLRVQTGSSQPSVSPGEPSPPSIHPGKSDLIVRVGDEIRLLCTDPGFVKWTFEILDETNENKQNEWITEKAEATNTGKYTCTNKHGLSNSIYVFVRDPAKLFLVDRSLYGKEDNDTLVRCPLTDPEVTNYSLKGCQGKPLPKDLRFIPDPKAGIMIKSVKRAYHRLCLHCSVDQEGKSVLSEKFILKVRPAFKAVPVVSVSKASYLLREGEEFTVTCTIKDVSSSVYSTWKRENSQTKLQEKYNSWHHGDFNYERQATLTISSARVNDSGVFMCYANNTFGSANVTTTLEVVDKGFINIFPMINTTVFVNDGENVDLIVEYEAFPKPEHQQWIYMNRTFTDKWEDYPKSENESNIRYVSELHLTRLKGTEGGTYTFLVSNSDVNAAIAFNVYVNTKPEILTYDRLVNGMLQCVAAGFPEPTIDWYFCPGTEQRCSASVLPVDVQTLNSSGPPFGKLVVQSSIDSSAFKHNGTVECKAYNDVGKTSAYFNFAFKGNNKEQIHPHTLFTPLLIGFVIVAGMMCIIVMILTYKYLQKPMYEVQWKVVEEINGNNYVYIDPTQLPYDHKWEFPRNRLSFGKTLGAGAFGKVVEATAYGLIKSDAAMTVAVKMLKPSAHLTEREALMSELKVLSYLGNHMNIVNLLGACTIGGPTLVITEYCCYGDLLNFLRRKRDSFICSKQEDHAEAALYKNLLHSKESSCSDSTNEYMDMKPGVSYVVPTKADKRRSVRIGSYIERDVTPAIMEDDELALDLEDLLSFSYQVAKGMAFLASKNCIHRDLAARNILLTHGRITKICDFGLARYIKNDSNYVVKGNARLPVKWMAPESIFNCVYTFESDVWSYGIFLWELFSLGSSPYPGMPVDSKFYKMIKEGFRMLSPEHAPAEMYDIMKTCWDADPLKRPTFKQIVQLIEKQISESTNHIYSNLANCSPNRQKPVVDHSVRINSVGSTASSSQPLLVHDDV
Protocol: as §1

HER2 = biological target: T3, HER2 (Homo sapiens, UniProt P04626)
T3 construct: gene ERBB2
Protocol: as §1

PDK1 = biological target: T4, PDK1 (Homo sapiens, UniProt O15530)
T4 construct: gene PDPK1
Protocol: as §1

PKCε = biological target: T5, PKCε (Homo sapiens, UniProt Q02156)
T5 construct: gene PRKCE
Protocol: as §1

HCK = HCK (Homo sapiens, UniProt P08631)
Protocol: as §1

MSSK1 = biological target: T6, MSSK1 (Homo sapiens, UniProt Q9UPE1)
T6 construct: gene SRPK3
Protocol: as §1

CGK2 = biological target: T7, CGK2 (Homo sapiens, UniProt Q13237)
T7 construct: gene PRKG2
T7 sequence (Q13237 whole entry): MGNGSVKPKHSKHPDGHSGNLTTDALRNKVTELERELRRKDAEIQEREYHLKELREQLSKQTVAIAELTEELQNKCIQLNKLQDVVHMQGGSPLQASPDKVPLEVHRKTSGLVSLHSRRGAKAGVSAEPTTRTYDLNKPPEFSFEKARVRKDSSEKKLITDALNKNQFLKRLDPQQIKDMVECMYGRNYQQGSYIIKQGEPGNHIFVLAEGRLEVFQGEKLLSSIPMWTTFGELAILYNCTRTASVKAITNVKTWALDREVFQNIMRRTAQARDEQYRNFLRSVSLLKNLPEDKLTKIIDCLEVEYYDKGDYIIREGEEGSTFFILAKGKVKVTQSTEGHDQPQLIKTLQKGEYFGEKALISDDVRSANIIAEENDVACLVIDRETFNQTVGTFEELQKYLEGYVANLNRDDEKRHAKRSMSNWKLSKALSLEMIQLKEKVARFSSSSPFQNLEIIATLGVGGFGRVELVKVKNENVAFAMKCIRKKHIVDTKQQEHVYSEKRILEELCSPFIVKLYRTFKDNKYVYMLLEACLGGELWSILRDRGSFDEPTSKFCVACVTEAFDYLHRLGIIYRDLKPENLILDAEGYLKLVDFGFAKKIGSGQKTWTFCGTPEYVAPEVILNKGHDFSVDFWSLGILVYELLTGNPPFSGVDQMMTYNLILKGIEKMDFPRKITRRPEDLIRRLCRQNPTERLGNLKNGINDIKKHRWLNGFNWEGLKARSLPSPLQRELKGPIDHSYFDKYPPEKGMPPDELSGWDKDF
Protocol: as §1

PKCβ2 = biological target: T8, PKCβ2 (Homo sapiens, UniProt P05771)
T8 construct: gene PRKCB; isoform beta2
Protocol: as §1

TIE2 = biological target: T9, TIE2 (Homo sapiens, UniProt Q02763)
T9 construct: gene TEK
Protocol: as §1

PIM3 = PIM3 (Homo sapiens, UniProt Q86V86)
Protocol: as §1

ABL(T315I) = biological target: T10, ABL(T315I) (Homo sapiens, UniProt P00519, T315I)
T10 construct: gene ABL1
Protocol: as §1

p38δ = biological target: T11, p38δ (Homo sapiens, UniProt O15264)
T11 construct: gene MAPK13
T11 sequence (O15264 whole entry): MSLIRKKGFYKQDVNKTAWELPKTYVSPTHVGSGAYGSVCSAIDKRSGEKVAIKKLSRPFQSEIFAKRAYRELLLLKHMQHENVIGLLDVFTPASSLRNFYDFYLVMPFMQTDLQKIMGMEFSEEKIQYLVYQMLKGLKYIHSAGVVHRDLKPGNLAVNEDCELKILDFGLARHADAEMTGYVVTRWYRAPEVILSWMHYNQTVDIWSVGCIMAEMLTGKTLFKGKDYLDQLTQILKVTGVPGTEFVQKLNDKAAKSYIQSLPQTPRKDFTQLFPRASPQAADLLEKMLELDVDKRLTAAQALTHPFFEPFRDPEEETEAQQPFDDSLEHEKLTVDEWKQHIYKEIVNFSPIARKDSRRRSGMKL
Protocol: as §1

FYN(isoform b) = biological target: T12, FYN(isoform b) (Homo sapiens, UniProt P06241)
T12 construct: isoform b
Protocol: as §1

IRAK4 = IRAK4 (Homo sapiens, UniProt Q9NWZ3)
Protocol: as §1

NEK9 = NEK9 (Homo sapiens, UniProt Q8TD19)
Protocol: as §1

NEK7 = NEK7 (Homo sapiens, UniProt Q8TDX7)
Protocol: as §1

PKD2 = biological target: T13, PKD2 (Homo sapiens, UniProt Q9BZL6)
T13 construct: gene PRKD2
Protocol: as §1

ITK = ITK (Homo sapiens, UniProt Q08881)
Sequence of ITK (Q08881 whole entry): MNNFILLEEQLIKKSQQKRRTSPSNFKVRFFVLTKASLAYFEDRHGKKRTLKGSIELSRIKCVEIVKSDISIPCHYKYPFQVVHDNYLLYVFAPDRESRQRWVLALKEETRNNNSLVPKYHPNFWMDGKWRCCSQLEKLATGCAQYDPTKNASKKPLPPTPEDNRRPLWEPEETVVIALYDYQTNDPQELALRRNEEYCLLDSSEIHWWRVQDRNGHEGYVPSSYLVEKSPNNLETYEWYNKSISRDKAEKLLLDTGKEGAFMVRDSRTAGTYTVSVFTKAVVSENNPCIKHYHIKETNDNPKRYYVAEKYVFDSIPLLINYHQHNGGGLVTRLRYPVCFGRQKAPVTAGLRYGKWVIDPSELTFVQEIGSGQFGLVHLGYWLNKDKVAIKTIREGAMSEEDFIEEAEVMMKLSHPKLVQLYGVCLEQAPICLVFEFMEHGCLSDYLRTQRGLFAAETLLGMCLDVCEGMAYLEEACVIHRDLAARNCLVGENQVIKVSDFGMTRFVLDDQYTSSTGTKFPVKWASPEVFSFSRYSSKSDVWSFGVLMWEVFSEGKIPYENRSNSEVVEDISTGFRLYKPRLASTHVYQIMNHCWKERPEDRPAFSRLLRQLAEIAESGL
Protocol: as §1

FGFR4(V550E) = FGFR4(V550E) (Homo sapiens, UniProt P22455, V550E)
Protocol: as §1

RON = biological target: T14, RON (Homo sapiens, UniProt Q04912)
T14 construct: gene MST1R
Protocol: as §1

CLK2 = CLK2 (Homo sapiens, UniProt P49760)
Protocol: as §1

PDGFRβ = biological target: T15, PDGFRβ (Homo sapiens, UniProt P09619)
T15 construct: gene PDGFRB
Protocol: as §1

CaMK2β = biological target: T16, CaMK2β (Homo sapiens, UniProt Q13554)
T16 construct: gene CAMK2B
T16 sequence (Q13554 whole entry): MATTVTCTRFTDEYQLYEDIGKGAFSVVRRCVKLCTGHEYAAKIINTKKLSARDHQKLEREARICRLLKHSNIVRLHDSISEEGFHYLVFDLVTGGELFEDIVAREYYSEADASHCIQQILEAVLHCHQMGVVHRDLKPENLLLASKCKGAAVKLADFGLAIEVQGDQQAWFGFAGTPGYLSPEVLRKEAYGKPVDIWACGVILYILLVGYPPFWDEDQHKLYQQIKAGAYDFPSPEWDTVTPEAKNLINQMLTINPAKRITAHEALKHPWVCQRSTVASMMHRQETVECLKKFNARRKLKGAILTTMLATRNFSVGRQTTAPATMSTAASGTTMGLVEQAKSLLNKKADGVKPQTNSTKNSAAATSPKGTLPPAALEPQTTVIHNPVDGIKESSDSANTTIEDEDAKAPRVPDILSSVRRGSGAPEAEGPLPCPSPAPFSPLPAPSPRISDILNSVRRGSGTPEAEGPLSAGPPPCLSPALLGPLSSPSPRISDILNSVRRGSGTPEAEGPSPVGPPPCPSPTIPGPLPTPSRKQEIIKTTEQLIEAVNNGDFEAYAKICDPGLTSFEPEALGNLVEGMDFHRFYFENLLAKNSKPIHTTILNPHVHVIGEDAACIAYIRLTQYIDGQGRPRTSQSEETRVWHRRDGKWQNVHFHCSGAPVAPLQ
Protocol: as §1

c1cc(-c2ccc3[nH]ncc3c2)ccn1 [TG693, 5-(4-pyridinyl)-1H-indazole]
inhibition at 1 µM (DYRK1A): 84.3%
inhibition at 1 µM (PIM1): 1.2%
inhibition at 1 µM (PKR): 1.2%
inhibition at 1 µM (FLT1): 5.9%
inhibition at 1 µM (WNK1): 4.1%
inhibition at 1 µM (KIT(V560G)): -2.6%
inhibition at 1 µM (PDGFRα(T674I)): 7.6%
inhibition at 1 µM (PLK3): 1.7%
inhibition at 1 µM (KIT(D816Y)): -1.7%
inhibition at 1 µM (HER2): -3.8%
inhibition at 1 µM (PDK1): -3.9%
inhibition at 1 µM (PKCε): 12.3%
inhibition at 1 µM (HCK): -3%
inhibition at 1 µM (MSSK1): -7.3%
inhibition at 1 µM (CGK2): 38.5%
inhibition at 1 µM (PKCβ2): -11.8%
inhibition at 1 µM (TIE2): 9.7%
inhibition at 1 µM (PIM3): 6.6%
inhibition at 1 µM (ABL(T315I)): 6.5%
inhibition at 1 µM (p38δ): -0.7%
inhibition at 1 µM (FYN(isoform b)): 0.6%
inhibition at 1 µM (IRAK4): 8.4%
inhibition at 1 µM (NEK9): -5.1%
inhibition at 1 µM (NEK7): -9%
inhibition at 1 µM (PKD2): 5.4%
inhibition at 1 µM (ITK): 2.8%
inhibition at 1 µM (FGFR4(V550E)): -4.1%
inhibition at 1 µM (RON): 1.1%
inhibition at 1 µM (CLK2): 14.9%
inhibition at 1 µM (PDGFRβ): 3%
inhibition at 1 µM (CaMK2β): 2.8%
